The text below walks through data of US20250361241A1, “HPK1 INHIBITOR AND MEDICAL USE THEREOF” (Betta Pharmaceuticals Co., Ltd., priority 2022, published 2025).

The target in one test is GLK (Homo sapiens (Human), UniProt Q8IVH8). The test can be described thus: GLK kinase assay (1 mM ATP system), ADP-Glo. In kind it is biochemical. The gist of the method:
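GLK kinase reaction with 1 mM ATP and MBP substrate ran 60 min at 25 °C after 15 min preincubation of enzyme with compound. ADP formed was detected by ADP-Glo luminescence; percent inhibition used to derive IC50.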
In general terms: ADP-Glo first removes unused ATP, then detects ADP through luciferase.

For test [1], the system named is human peripheral blood mononuclear cells. Kind of test: Detection of IFN-γ secretion in human peripheral blood mononuclear cells (anti-CD3/CD28 beads, ELISA). The test is classed as cell-based. As to conditions: for Maximum induction factor: IFN-γ secretion, human PBMC; for EC3x: concentration for IFN-γ secretion of human PBMC to reach 3 times the baseline, 3 days. How it is done:
Pharmacological Experiment 4: Detection of IFN-γ Secretion in Human Peripheral Blood Monocytes
• (1) Take human peripheral blood mononuclear cells frozen in liquid nitrogen, thaw in a 37° C. water bath, add 5 mL of preheated RPMI-1640 complete medium (containing 10% fetal bovine serum and penicillin/streptomycin), centrifuge at 500 g for 10 minutes, and discard the supernatant; • (2) Resuspend the cells in RPMI-1640 complete medium, adjust the density to 5×10^6 cells/mL, inoculate in a low-adhesion 6-well plate (Corning, 3471), and culture at 37° C. for 2 days; • (3) Collect cultured human peripheral blood mononuclear cells, centrifuge at 500 g for 10 min, and discard the supernatant; • (4) Resuspend the cells in RPMI-1640 complete medium, adjust the density to 1×10^6 cells/mL, and inoculate them in a round-bottom 96-well plate (Jet Biofil, TCP-002-096), with 100 μL per well; • (5) Add 50 μL of the test compound to each well and incubate at 37° C. for 30 min; • (6) Take human anti-CD3/CD28 magnetic beads (Miltenyi, 130-091-441), wash once with RPMI-1640 complete medium, and adjust the density to 0.5×106 beads/mL for later use; • (7) After the compound incubation, 50 μL of anti-human CD3/CD28 magnetic beads were added to each well and cultured at 37° C. for 3 days, • (8) The cell culture supernatant was obtained and the IFN-γ secretion was detected using the Human IFN-gamma DuoSet ELISA kit (R&D, DY285B-05); • (9) The log value of concentration was used as the X-axis and the IFN-γ secretion amount was used as the Y-axis. The “log (agonist) vs. response−variable slope” equation of the analysis software GraphPad Prism 7 was used to fit the dose-effect curve, thereby obtaining the EC3x value and the maximum induction factor of the compound for the secretion of IFN-γ from human peripheral blood mononuclear cells to reach 3 times the baseline.

The next test deals with HPK1 (Homo sapiens (Human), UniProt Q92918). Kind of test: HPK1 enzyme activity detection (1 mM ATP system), ADP-Glo with MBP substrate, Pharmacological Experiment 2. The test is classed as biochemical. The method in brief:
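Compound in DMSO preincubated with HPK1 for 15 min at 25 °C, then reaction started with ATP (1 mM system) and MBP substrate for 60 min at 25 °C. ADP formed quantified by ADP-Glo luminescence; IC50 derived from percentage inhibition.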

Several values for one entry are separate records, joined by “and”; a condition that tells them apart may be missing. Equal entries are not always repeated.

GLK, sequence (Q8IVH8 whole entry, species assumed): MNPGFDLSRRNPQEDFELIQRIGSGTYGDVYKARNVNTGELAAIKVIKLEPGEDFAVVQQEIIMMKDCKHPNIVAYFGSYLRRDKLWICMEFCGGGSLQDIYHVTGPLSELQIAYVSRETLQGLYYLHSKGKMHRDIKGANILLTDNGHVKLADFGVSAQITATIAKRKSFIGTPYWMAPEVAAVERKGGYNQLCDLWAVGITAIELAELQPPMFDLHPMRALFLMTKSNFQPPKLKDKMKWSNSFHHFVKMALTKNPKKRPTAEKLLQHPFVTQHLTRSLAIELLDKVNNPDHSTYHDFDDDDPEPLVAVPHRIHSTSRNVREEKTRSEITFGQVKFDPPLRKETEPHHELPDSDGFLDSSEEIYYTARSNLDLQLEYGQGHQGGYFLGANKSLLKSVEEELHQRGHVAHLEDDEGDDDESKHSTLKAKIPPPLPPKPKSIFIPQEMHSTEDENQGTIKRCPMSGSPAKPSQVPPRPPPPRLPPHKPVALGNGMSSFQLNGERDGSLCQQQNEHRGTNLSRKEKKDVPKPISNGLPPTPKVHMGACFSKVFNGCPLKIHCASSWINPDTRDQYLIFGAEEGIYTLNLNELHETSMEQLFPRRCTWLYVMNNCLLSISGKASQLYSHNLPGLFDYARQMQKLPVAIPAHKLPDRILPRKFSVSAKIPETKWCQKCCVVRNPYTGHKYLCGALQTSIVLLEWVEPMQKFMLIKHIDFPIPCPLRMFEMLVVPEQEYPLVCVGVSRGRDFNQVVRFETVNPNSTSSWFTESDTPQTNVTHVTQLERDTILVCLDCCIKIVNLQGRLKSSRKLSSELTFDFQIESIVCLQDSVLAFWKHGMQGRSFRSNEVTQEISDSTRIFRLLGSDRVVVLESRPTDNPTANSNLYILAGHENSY
HPK1, sequence (Q92918 whole entry, species assumed): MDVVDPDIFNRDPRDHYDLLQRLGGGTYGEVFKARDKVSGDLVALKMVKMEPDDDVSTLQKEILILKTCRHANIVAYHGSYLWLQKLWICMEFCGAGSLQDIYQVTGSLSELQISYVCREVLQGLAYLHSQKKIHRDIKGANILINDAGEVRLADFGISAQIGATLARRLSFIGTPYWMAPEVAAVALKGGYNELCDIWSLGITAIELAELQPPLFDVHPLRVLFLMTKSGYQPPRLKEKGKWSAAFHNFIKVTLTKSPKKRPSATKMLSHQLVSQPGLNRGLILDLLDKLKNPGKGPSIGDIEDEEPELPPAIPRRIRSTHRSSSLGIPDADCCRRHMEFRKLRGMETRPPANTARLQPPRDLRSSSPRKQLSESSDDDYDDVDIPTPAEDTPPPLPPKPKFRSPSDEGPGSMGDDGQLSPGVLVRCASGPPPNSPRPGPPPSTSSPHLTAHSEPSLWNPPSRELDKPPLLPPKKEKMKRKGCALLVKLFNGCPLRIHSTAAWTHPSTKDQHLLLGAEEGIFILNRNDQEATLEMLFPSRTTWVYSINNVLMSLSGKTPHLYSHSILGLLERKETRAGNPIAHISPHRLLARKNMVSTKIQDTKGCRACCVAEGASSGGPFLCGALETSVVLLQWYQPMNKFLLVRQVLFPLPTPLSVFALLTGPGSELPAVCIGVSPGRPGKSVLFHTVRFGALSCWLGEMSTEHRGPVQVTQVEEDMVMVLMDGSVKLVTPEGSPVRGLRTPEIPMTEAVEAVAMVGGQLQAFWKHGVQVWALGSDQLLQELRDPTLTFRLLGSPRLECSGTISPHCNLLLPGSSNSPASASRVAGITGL

The term IC50 denotes the concentration that inhibits the measured activity by half. On GLK, “4-(7-FLUOROIMIDAZO[1,2-A]PYRIDIN-3-YL)-7-((2,3,5,6,7′,8′-HEXAHYDRO-6′H-SPIRO[PYRAN-4,5′-[1,7]NAPHTHYRIDINE]-2′-YL)AMINO)ISOINDOL-1-ONE [Compound 87]” yielded an IC50 of 724 nM. For the same compound, in test [1], the Maximum induction factor was 11.2 and the “EC3x” value stood at 193 nM. In addition, half-maximal inhibition on HPK1 (IC50) required 5.12 nM.

Turning to “4-(7-FLUOROIMIDAZO[1,2-A]PYRIDIN-3-YL)-7-((7′-METHYL-2,3,5,6,7′,8′-HEXAHYDRO-6′-SPIRO[PYRAN-4,5′-[1,7]NAPHTHYRIDINE]-2′-YL)AMINO)ISOINDOL-1-ONE [Compound 50]”, the IC50 at GLK was 1230 nM; at HPK1, 3.39 nM. The compound also showed a Maximum induction factor in test [1] of 4.8. The “EC3x” value in test [1] is 181 nM.

On GLK, `CN(C)C1COC2(CCOCC2)c2ccc(Nc3ccc(-c4cnc5cc(F)ccn45)c4c3C(=O)NC4)nc21` (stereo not drawn) [Compound 49, 7-((8′-(DIMETHYLAMINO)-2,3,5,6,7′,8′-HEXAHYDROSPIRO[PYRAN-4,5′-PYRAN[4,3-B]PYRIDINE]-2′-YL)AMINO)-4-(7-FLUOROIMIDAZOLE[1,2-A]PYRIDIN-3-YL)ISOINDOL-1-ONE] displayed an IC50 of 338 nM. Moreover, in test [1], the Maximum induction factor is 10.7 and 5.7; the “EC3x” value is 152 nM and 294 nM. Besides, the 50% inhibitory concentration (IC50) at HPK1 amounted to 4.44 nM.

With `CN(C)C1CC2(CCOC2)c2ccc(Nc3ccc(-c4cnc5cc(F)ccn45)c4c3C(=O)NC4)nc21` (stereo not drawn) [Compound 58, 7-((7-(DIMETHYLAMINO)-4′,5′,6,7-TETRAHYDRO-2′H-SPIRO[CYCLOPENTANE[B]PYRIDINE-5,3′-FURAN]-2-YL)AMINO)-4-(7-FLUOROIMIDAZO[1,2-A]PYRIDIN-3-YL)ISOINDOL-1-ONE], the IC50 came to 1480 nM at GLK and 5.25 nM against HPK1. For the same compound, the Maximum induction factor in test [1] is given as 6.5. Besides, in test [1], the “EC3x” value was found to be 352 nM.

Consider `O=C1NCc2c(-c3cnc4cc(F)ccn34)ccc(Nc3ccc4c(n3)C(NC3CC3)CC43CCOCC3)c21` (stereo not drawn) [Compound 62, 7-((7-(CYCLOPROPYLAMINO)-2′,3′,5′,6,6′,7-HEXAHYDROSPIRO[CYCLOPENTYL[B]PYRIDINE-5,4′-PYRAN]-2-YL)AMINO)-4-(7-FLUOROIMIDAZOLE[1,2-A]PYRIDIN-3-YL)ISOINDOL-1-ONE], for which, at GLK, the IC50 was > 30000 nM. Further, in test [1], the Maximum induction factor was 4.9 and the “EC3x” value was 241 nM. At HPK1, this compound had an IC50 of 10.2 nM.

With `O=C1NCc2c(-c3cnc4cc(F)ccn34)ccc(Nc3ccc4c(n3)C(N3CC[C@@H](F)C3)CC43CCOCC3)c21` (stereo partly drawn) [Compound 71, 4-(7-FLUOROIMIDAZOLO[1,2-A]PYRIDIN-3-YL)-7-((7-((R)-3-FLUOROPYRROLIDIN-1-YL)-2′,3′,5′,6,6′,7-HEXA HYDROSPIRO[CYCLOPENTYL[B]PYRIDIN-5,4′-PYRAN]-2-YL)AMINO)ISOINDOL-1-ONE], the IC50 at GLK stood at 293 nM; on HPK1, 3.27 nM. This compound showed a Maximum induction factor in test [1] of 16.6. Besides, the “EC3x” value in test [1] is on record as 76 nM.

`O=C1NCc2c(-c3cnc4cc(F)ccn34)ccc(Nc3ccc4c(n3)C(N3CC[C@H](F)C3)CC43CCOCC3)c21` (stereo partly drawn) [Compound 75] displayed an IC50 against GLK of 273 nM. Also, in test [1], the Maximum induction factor is 8.3 and 10.5; the “EC3x” value was 64 nM and 119 nM. Besides, the concentration for half-maximal inhibition (IC50) on HPK1 is 2.78 nM.

As to `O=C1NCc2c(-c3cnc4cc(Cl)ccn34)ccc(Nc3ccc4c(n3)C(N3CCCC3)CC43CCOCC3)c21` (stereo not drawn) [Compound 103], at GLK, the IC50 was determined as 291 nM. Further, in test [1], the Maximum induction factor amounted to 5.3 and the “EC3x” value is 123 nM. Besides, the IC50 against HPK1 worked out at 4.67 nM.

As to `O=C1NCc2c(-c3cnc4cc(F)ccn34)ccc(Nc3ccc4c(n3)C(NCC(F)F)CC43CCOCC3)c21` (stereo not drawn) [Compound 105], in test [1], the Maximum induction factor was determined as 14.1 and the “EC3x” value worked out at 58 nM. The compound also came in with an IC50 on HPK1 of 5.26 nM.

Regarding `O=C1NCc2c(-c3cnc4cc(F)ccn34)ccc(Nc3ccc4c(n3)C(NC3CCOC3)CC43CCOCC3)c21` (stereo not drawn) [Compound 107], the IC50 on GLK is 1200 nM. In addition, in test [1], the Maximum induction factor is recorded as 8.8 and the “EC3x” value worked out at 296 nM. Besides, on HPK1, the IC50 was determined as 3.55 nM.

On to `O=C1NCc2c(-c3cnc4cc(F)ccn34)ccc(Nc3ccc4c(n3)C(N3C5CCC3COC5)CC43CCOCC3)c21` (stereo not drawn) [Compound 115], for which, in test [1], the Maximum induction factor turned out to be 9.6 and the “EC3x” value was found to be 225 nM. On HPK1, this compound had an IC50 of 7.15 nM.

For `Cc1ccn2c(-c3ccc(Nc4ccc5c(n4)CCCC54CCOCC4)c4c3CNC4=O)cnc2c1` [Compound 121], at GLK, the IC50 was 679 nM. Also, in test [1], the Maximum induction factor was 19.4 and the “EC3x” value was found to be 140 nM. The 50% inhibitory concentration (IC50) at HPK1 was found to be 3.35 nM.

Consider `O=C1NCc2c(-c3cnc4cc(Cl)ccn34)ccc(Nc3ccc4c(n3)CCCC43CCOCC3)c21` [Compound 122], for which the IC50 against GLK amounted to 455 nM. Further, in test [1], the Maximum induction factor is listed as 16.2 and the “EC3x” value is reported as 56 nM. Also, inhibition against HPK1 was half-maximal at 3.21 nM (IC50).

Turning to `O=C1NCc2c(-c3cnc4cc(OC(F)F)ccn34)ccc(Nc3ccc4c(n3)CNCC43CCOCC3)c21` [Compound 123], the midpoint of inhibition against GLK, the IC50, lay at 896 nM. For the same compound, in test [1], the Maximum induction factor was 26.8 and the “EC3x” value is listed as 214 nM. Besides, the IC50 on HPK1 came out at 12.1 nM.

For `O=C1NCc2c(-c3cnc4cc(F)ccn34)ccc(Nc3ccc4c(n3)CCCC43CCC3)c21` [Compound 125], the IC50 on GLK turned out to be 1200 nM. Moreover, in test [1], the Maximum induction factor was determined as 20.2 and the “EC3x” value stood at 173 nM. On HPK1, this compound returned a half-inhibitory concentration (IC50) of 11.1 nM.

For the compound `O=C1NCc2c(-c3cnc4cc(F)ccn34)ccc(Nc3ccc4c(n3)CCCC43CCCC3)c21` [Compound 127], the half-inhibitory concentration (IC50) against GLK was 767 nM; against HPK1, 5.23 nM. Further, the Maximum induction factor in test [1] was 19.1. Further, the “EC3x” value in test [1] turned out to be 74.6 nM.

In the case of `CN(C)C1CC2(CCOC2)c2ccc(Nc3ccc(-c4cnc5cc(Cl)ccn45)c4c3C(=O)NC4)nc21` (stereo not drawn) [Compound 151], on GLK, the IC50 turned out to be 970 nM. In addition, in test [1], the Maximum induction factor is listed as 6.5 and the “EC3x” value stood at 53 nM. The compound further returned an IC50 at HPK1 of 6.34 nM.

Regarding `Cc1ccn2c(-c3ccc(Nc4ccc5c(n4)C(N(C)C)CC54CCOCC4)c4c3CNC4=O)cnc2c1` (stereo not drawn) [Compound 161], the IC50 on GLK was determined as 311 nM; against HPK1 it was 3.57 nM. The compound also returned a Maximum induction factor in test [1] of 6.4. Besides, the “EC3x” value in test [1] was found to be 67 nM.

As for `CN(C)C1CC2(CCOCC2)c2ccc(Nc3ccc(-c4cnc5cc(C6CC6)ccn45)c4c3C(=O)NC4)nc21` (stereo not drawn) [Compound 164, 4-(7-CYCLOPROPYLIMIDAZO[1,2-A]PYRIDIN-3-YL)-7-((7-(DIMETHYLAMINO)-2′,3′,5′,6,6′,7-HEXAHYDROSPIRO[CYCLOPENTANE[B]PYRIDINE-5,4′-PYRAN]-2-YL)AMINO)ISOINDOL-1-ONE], half-maximal inhibition against GLK (IC50) was put at 105 nM. Besides, in test [1], the Maximum induction factor came to 9.2 and the “EC3x” value is given as 458 nM. Further, at HPK1, it took 10.6 nM to reach half-maximal inhibition (IC50).

`CC(C)NC1CC2(CCOCC2)c2ccc(Nc3ccc(-c4cnc5cc(OC(F)F)ccn45)c4c3C(=O)NC4)nc21` (stereo not drawn) [Compound 179]: the IC50 against GLK amounted to 970 nM; against HPK1 it was 8.85 nM.

Turning to `COc1ccn2c(-c3ccc(Nc4ccc5c(n4)C(N(C)C)CC54CCOC4)c4c3CNC4=O)cnc2c1` (stereo not drawn) [Compound 180, 7-((7-(DIMETHYLAMINO)-4′,5′,6,7-TETRAHYDRO-2′H-SPIRO[CYCLOPENTADIENYL[B]PYRIDINE-5,3′-FURAN]-2-YL)AMINO)-4-(7-METHOXYIMIDAZO[1,2-A]PYRIDIN-3-YL)ISOINDOLIN-1-ONE], the values for the IC50 against GLK and against HPK1 were 3910 nM and 13.9 nM, respectively.
